Assay [1] has as its system Pu22 (DNA, G4) TGAGGGTGGGTAGGGTGGGTAA
Briefly: CD spectroscopy. As to conditions: K+ 4.5 mM, Na+ (137 mM NaCl, 10 mM Na2HPO4); PBS pH 7.4, 40 °C; 125 µM tPD, 2.5 µM DNA; CD band increase at 263 nm.

Assay [2] has the same test system. Briefly: CD melting at 265 nm. As to conditions: K+ 4.5 mM, Na+ (137 mM NaCl, 10 mM Na2HPO4); PBS pH 7.4; 125 µM tPD, 2.5 µM DNA (50 equiv.); Tm 62 to 64 °C.

Experimental findings from paper PMC9099682 (2022) are described below.

Regarding `OC[C@H]1O[C@@H](Oc2cc(O)cc(/C=C/c3ccc(O)cc3)c2)[C@H](O)[C@@H](O)[C@@H]1O`, in assay [1], the binding entry is recorded as “yes”. In assay [2], the ΔTm entry is “+2 °C”.
